10 molecules from PubChem BioAssay AID624004 (Vanderbilt Specialized Chemistry Center, 2012) can be followed below.

The assay deals with Phospholipase D2 (Homo sapiens) + Phospholipase D2 (Homo sapiens) (UniProt O14939+O14939). The assay can be described thus: PLD2 inhibition potency in cells, dose response, cell-based, Lib32, assay 2B (AID 624004). To be noted: cellular PLD2 activity assay.
Chain of Phospholipase D2 (Homo sapiens) + Phospholipase D2 (Homo sapiens) (O14939 whole entry, looked up): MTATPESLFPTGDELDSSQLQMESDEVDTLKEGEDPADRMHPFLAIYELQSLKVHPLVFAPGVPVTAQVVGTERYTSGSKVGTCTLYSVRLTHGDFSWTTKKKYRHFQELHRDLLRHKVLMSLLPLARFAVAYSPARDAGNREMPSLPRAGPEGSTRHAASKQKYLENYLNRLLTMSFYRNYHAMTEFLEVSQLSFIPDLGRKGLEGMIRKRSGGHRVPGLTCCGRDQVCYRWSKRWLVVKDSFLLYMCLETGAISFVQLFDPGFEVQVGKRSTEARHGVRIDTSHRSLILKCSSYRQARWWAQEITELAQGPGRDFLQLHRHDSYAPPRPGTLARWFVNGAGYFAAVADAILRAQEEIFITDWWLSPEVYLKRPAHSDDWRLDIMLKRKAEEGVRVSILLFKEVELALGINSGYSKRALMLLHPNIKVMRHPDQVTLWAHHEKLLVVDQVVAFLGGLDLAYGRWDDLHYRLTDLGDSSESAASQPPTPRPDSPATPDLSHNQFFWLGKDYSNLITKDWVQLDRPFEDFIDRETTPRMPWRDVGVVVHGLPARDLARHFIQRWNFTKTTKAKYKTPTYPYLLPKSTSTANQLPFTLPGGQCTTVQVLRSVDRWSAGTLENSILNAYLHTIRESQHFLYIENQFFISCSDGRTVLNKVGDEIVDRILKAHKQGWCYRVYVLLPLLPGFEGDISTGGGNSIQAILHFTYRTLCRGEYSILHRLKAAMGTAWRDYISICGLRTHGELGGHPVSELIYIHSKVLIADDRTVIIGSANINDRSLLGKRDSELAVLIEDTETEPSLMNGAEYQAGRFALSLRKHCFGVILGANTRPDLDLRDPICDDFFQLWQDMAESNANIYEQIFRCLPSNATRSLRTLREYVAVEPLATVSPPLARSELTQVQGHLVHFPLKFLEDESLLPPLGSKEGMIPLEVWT
Chain of Phospholipase D2 (Homo sapiens) + Phospholipase D2 (Homo sapiens) (O14939 whole entry, looked up): as above

On to `COc1cc(C(=O)N[C@@H](C)CN2CCC3(CC2)C(=O)NCN3c2cccc(F)c2)cc(OC)c1OC`, for which the IC50 (usually the concentration that inhibits the measured activity by half) was 72 nM.

`C[C@@H](CN1CCC2(CC1)C(=O)NCN2c1cccc(F)c1)NC(=O)c1ccc(Br)cc1`: the IC50 is 84 nM.

`C[C@@H](CN1CCC2(CC1)C(=O)NCN2c1cccc(F)c1)NC(=O)c1cccc(F)c1`: the IC50 is 1200 nM.

In the case of `C[C@@H](CN1CCC2(CC1)C(=O)NCN2c1cccc(F)c1)NC(=O)c1cccc([N+](=O)[O-])c1`, the half-maximal inhibitory concentration (IC50) is 430 nM.

For the molecule `C[C@@H](CN1CCC2(CC1)C(=O)NCN2c1cccc(F)c1)NC(=O)c1ccc(F)cc1F`, the IC50 is 947 nM.

Take `O=C(NCCN1CCC2(CC1)C(=O)NCN2c1cccc(F)c1)c1ccc(F)cc1`: the IC50 is 355 nM.

Consider `O=C(NCCN1CCC2(CC1)C(=O)NCN2c1cccc(F)c1)c1ccc(Br)cc1`, for which the 50% inhibitory concentration (IC50) is 200 nM.

In the case of `C[C@@H](CN1CCC2(CC1)C(=O)NCN2c1cccc(F)c1)NC(=O)c1ccc(F)c(F)c1`, the IC50 is 120 nM.

Consider `C[C@@H](CN1CCC2(CC1)C(=O)NCN2c1cccc(F)c1)NC(=O)c1ccc(F)cc1`, for which the 50% inhibitory concentration (IC50) was 34 nM.

`COc1cc(C(=O)NCCN2CCC3(CC2)C(=O)NCN3c2cccc(F)c2)cc(OC)c1OC`: the concentration for half-maximal inhibition (IC50) was 1430 nM.
